The results in this text go back to patent publication US20240408126A1, “BACTERIAL CAPSULAR OLIGOSACCHARIDE DERIVATIVE, PREPARATION METHOD THEREFOR, PHARMACEUTICAL COMPOSITION AND USE THEREOF” (PEKING UNIVERSITY, priority 2021, published 2024).

In assay [1] the test system is LPS-induced sepsis model. The experiment in a line: LPS-induced survival rate in sepsis model of mice. The assay is classed as in vivo, male C57BL/6 mice. To be noted: three times, LPS 45 mg/kg, after 72 hours, model group 40%. The protocol: A total of 60 male C57BL/6 mice aged 6-8 weeks, weighing 20±2 g, were selected. The mice were placed in a feeding room with temperature of 20-24° C. and humidity of 50%-60%, and were allowed to drink and eat freely. They were adaptively raised for 7 days before the experiment.
The mice were randomly divided into six groups: control group, model group, CP-1 high dose group (30 mg/kg), CP-1 middle dose group (10 mg/kg), CP-1 low dose group (3 mg/kg), and dexamethasone group, with 10 mice in each group. CP-1 high-dose group was intraperitoneally injected with 200 μL CP-1 solution at the concentration of 30 mg/kg, CP-1 middle-dose group was intraperitoneally injected with equal volume of CP-1 solution at the concentration of 10 mg/kg, CP-1 low-dose group was intraperitoneally injected with equal volume of CP-1 solution at the concentration of 3 mg/kg, dexamethasone group was intraperitoneally injected with equal volume of dexamethasone solution at the concentration of 30 mg/kg, and control group was intraperitoneally injected with equal volume of 0.9% normal saline. Except for the control group, all groups were intraperitoneally injected with 200 μL of LPS solution at 45 mg/kg for modeling. Each group was administered once for a total of three times, 48 hours and 24 hours before modeling, and 30 minutes after modeling. After administration, the state and survival rate of mice were observed and recorded every 6 hours for 72 hours.

Assay [2] relates to LPS-induced inflammatory factors in serum. The experiment in a line: LPS-induced cytokines in serum of sepsis mouse model (CP-Me). The assay is classed as in vivo, male C57BL/6 mice. To be noted: 10 mg/kg and 3 mg/kg intraperitoneal, two times; LPS 25 mg/kg; serum after 12 hours; IL-1β, IL-6, TNF-α; FIG. 7. The protocol: A total of 24 male C57BL/6 mice aged 6-8 weeks, weighing 20±2 g, were selected. The mice were placed in a feeding room with temperature of 20-24° C. and humidity of 50%-60%, and were allowed to drink and eat freely. They were adaptively raised for 7 days before the experiment. Mice were randomly divided into four groups: control group, CP-Me group, LPS group and LPS+CP-Me group, with 6 mice in each group. CP-Me 10 mg/kg group and CP-Me 3 mg/kg group were intraperitoneally injected with 200 μL CP-Me solution at the concentrations of 10 mg/kg and 3 mg/kg, while the control group and LPS group were intraperitoneally injected with equal volume of 0.9% normal saline. LPS group was injected intraperitoneally with 200 μL LPS solution at 25 mg/kg for modeling. Each group was administered once for a total of two times, 12 hours before modeling and 30 minutes after modeling. After 12 hours of administration, the mice were anesthetized and blood was taken from the heart. After the blood stood for 2 hours, it was centrifuged at 5000 rpm for 10 minutes to collect serum. According to the instructions of Elisa kit, the absorbance of each hole was detected by using a multifunctional enzyme-labeled instrument at the wavelength of 450 nm, and the contents of cytokines IL-1β, IL-6, and TNF-α were calculated according to the standard curve.

Structures are written as SMILES.

As to `CC(=O)NC1[C@H](OC2[C@@H](O[C@@H]3C(NC(C)=O)C(O)OC(CO)[C@@H]3O)OC(C(=O)O)[C@H](O)[C@@H]2O)OC(CO)[C@@H](O)[C@@H]1O[C@@H]1OC(C(=O)O)[C@@H](O)[C@H](O)C1O` (stereo partly drawn) [CP-1, β-D-glucopyranuronic acid-(1→3)-2-deoxy-2-acetylamino-β-D-glucopyranosyl-(1→2)-α-D-galactopyranoic acid-(1→3)-2-deoxy-2-acetylamino-α,β-D-galactopyranoside], the “survival rate of mice” value in assay [1] (3 mg/kg (low dose) intraperitoneal) came to 70%; in assay [1] (10 mg/kg (middle dose) intraperitoneal), 80%; in assay [1] (30 mg/kg intraperitoneal), 70%. Consider `CO[C@@H]1OC(CO)[C@H](O)C(O[C@H]2OC(C(=O)O)[C@H](O)C(O)C2O[C@@H]2OC(CO)[C@@H](O)C(O[C@@H]3OC(C(=O)O)[C@@H](O)C(O)C3O)C2NC(C)=O)C1NC(C)=O` (stereo partly drawn) [CP-Me, methyl β-D-glucopyranuronic acid-(1→3)-2-deoxy-2-acetylamino-β-D-glucopyranosyl-(1→2)-α-D-galactopyranoic acid-(1→3)-2-deoxy-2-acetylamino-α,β-D-galactopyranoside], for which, in assay [2], the “effect on LPS-induced inflammatory factors in serum” value is recorded as “inhibitory effect”. For the compound `C[C@@H]1C[C@H]2[C@@H]3CCC4=CC(=O)C=C[C@]4(C)[C@@]3(F)[C@@H](O)C[C@]2(C)[C@@]1(O)C(=O)CO` [dexamethasone, reference compound], the “survival rate of mice” value in assay [1] (30 mg/kg intraperitoneal) is given as 60%.
